Results from US20100215741A1, “PHARMACEUTICAL COMPOUNDS” (priority 2009, published 2010).
Where two headings read alike, the source gives them in different places.

Legend:
CB1 receptors = molecular target: T1, CB1 receptors (Mus musculus, UniProt P47746); experiment: radioreceptor binding, displacement of [3H]-CP-55,940, CB1 (brain)
T1 construct: the complete brain (excluding the cerebellum) and the spleen were quickly dissected and kept in ice; from tissue; host or cells: mouse brain (excluding the cerebellum), membrane preparation
T1 sequence (P47746 whole entry): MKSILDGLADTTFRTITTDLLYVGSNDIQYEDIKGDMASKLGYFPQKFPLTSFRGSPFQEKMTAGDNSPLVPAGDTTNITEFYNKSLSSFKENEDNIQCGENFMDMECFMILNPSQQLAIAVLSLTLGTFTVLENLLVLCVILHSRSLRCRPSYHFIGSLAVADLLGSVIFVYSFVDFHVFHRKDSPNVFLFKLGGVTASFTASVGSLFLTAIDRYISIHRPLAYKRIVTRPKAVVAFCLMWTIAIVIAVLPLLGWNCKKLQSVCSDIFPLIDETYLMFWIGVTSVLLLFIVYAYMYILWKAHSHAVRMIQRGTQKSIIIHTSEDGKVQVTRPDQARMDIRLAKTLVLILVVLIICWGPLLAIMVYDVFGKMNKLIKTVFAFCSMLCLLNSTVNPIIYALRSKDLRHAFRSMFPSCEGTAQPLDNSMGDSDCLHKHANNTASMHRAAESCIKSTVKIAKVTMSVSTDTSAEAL
Description: (§1) The affinity of the compounds towards the CB1 and CB2 cannabinoidergic receptors was evaluated in vitro by radioreceptor binding studies using the following method.
(§2) The technique of the receptor binding allows to establish if, and with which affinity and specificity, a specific compound binds to a particular receptor. To evaluate the affinity of a specific compound to a particular receptor it is necessary to challenge in a particular tissue preparation wherein those specific receptors are present the compound to be tested with a radioactive labelled compound whose affinity for the same receptors is known. […] The amount of radioactivity present in the receptor-compound complex allows furthermore to stimate with great accuracy the amount of compound bound to the receptor. By said method it is therefore possible to stablish quickly the affinity of a new compound towards a specific receptor and thus to determine its pharmacological activity. With the same experimental protocol it is possible to evaluate the affinity of the compound towards other receptors and thus establish its specificity degree toward said other receptors.
(§3) The food and water were ad libitum.
(§4) The procedure adopted, based on the use of the compound [^3H]-CP-55,940 (New England Nuclear, Boston, Mass., USA), requires the use of the mouse brain as biological tissue for the evaluation of the affinity towards the CB1 receptors and of the mouse spleen for the affinity assay for the CB2 receptors.
(§5) The animals were sacrificed by cervical dislocation and the complete brain (excluding the cerebellum) and the spleen were quickly dissected and kept in ice.
(§6) The tissue was homogenized in 15 volumes (weight/-volume) of TME buffer (50 Mm Tris, 1 mM EDTA and 3 mM MgCl2, pH 7.4) by an Ultra-Turrax and subsequently centrifuged for 10 minutes at 1086×g in a centrifuge refrigerated at 4° C. The recovered supernatant was centrifuged at 45,000×g for 30 minutes at 4° C. by using a Beckman SW41 rotor and the obtained pellet was resuspended in 50 volumes of TME.
(§7) The thus obtained membranes (50-80 μg of proteins) were incubated in the presence of 1 nM of [^3H]-CP55.940 for 1 hour at 30° C. in a final volume of 0.5 ml of TME buffer containing […] (BSA). The non specific binding was measured in the presence of CP55.940 at a 1 μM concentration.
(§8) All the experiments were carried out in polypropylene test tubes pretreated with Sigma-Cote (Sigma Chemical Co. Ltd., Poole, UK) for reducing non specific binding.
(§9) In order to determine the competitive inhibition binding curves, eight different concentrations of each compound were used.
(§10) Incubation was stopped by addition of TME buffer (at 4° C.) containing 5 mg/ml of BSA, and subsequent filtration under vacuum by Whatman GFC filters pretreated with 0.5% of polyethylamine (PEI) and by using a filtering device (Brandell, Gaithersburg, Md., USA). The filters were washed 3 times with 5 ml of Tris HCl buffer (pH 7.4, 4° C.) containing 1 mg/ml of BSA and separately placed in plastic vials containing 4 ml of scintillating liquid (Ultima Gold MV, Packard).
(§11) The radioactivity present in the filters was determined by a scintillator spectrophotometer (Tricarb® 2100, Packard, Meridien, USA).
(§12) Protein determination was carried out by the Bradford method by using the protocol and the reactants supplied by Bio-Rad (Milano, Italy).

CB2 receptors = molecular target: T2, CB2 receptors (Mus musculus, UniProt P47936); experiment: radioreceptor binding, displacement of [3H]-CP-55,940, CB2 (spleen)
T2 construct: the complete brain (excluding the cerebellum) and the spleen were quickly dissected and kept in ice; from tissue; host or cells: mouse spleen, membrane preparation
T2 sequence (P47936 whole entry): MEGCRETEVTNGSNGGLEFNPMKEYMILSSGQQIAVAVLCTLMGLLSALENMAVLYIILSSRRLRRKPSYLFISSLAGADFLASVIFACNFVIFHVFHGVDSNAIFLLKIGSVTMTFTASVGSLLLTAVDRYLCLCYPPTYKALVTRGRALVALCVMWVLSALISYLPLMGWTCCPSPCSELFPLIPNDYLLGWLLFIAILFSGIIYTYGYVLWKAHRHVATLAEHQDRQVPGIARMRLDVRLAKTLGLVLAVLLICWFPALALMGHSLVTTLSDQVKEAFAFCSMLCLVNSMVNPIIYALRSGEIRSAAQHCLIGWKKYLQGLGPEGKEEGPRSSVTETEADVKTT
Description: as §1, §2, §3, §4, §5, §6, §7, §8, §9, §10, §11, §12

[1] = mouse spleen membranes, 1 nM [3H]-CP55.940, 1 hour at 30° C., read-out: CB2 (spleen) Ki

## Cc1ccc2c(c1)oc1c(C(N)=O)nn(-c3ccc(Cl)cc3Cl)c12 [1-(2,4-dichlorophenyl)-6-methyl-1H-benzofuro [3,2-c]pyrazole-3-carboxamide]
other
  melting point: 185 to 186 °C

## CC1(C)C2CCC(CNC(=O)c3nn(-c4ccc(Cl)cc4Cl)c4c3CCCc3ccc(Cl)cc3-4)C1C2 (stereo not shown) [Example 3.1, N-myrtanyl-9-chloro-1-(2′,4′-dichlorophenyl)-1,4,5,6-tetrahydrobenzo[6,7]cyclohepta[1,2-c]pyrazol-3-carboxamide]
CB1 receptors
  Ki: 20 ± 5 nM
CB2 receptors; [1]
  Ki: 23.3 ± 1.6 nM

## CC1(C)C2CCC(CNC(=O)c3nn(-c4ccc(Cl)cc4Cl)c4c3CCOc3cc(Cl)ccc3-4)C1C2 (stereo not shown) [Example 3.3, N-myrtanyl-8-chloro-1-(2′,4′-dichlorophenyl)-4,5-dihydrobenzo-1H-6oxa-cyclohepta[1,2-c]pyrazol-3-carboxamide]
CB1 receptors
  Ki: 21.7 ± 3 nM
CB2 receptors; [1]
  Ki: 325 ± 38 nM
other
  melting point: 142 to 143 °C

## CC1(C)C2CCC(CNC(=O)c3nn(-c4ccc(Cl)cc4Cl)c4c3CCCc3cc(Cl)ccc3-4)C1C2 (stereo not shown) [Example 3.4, N-myrtanyl-8-chloro-1-(2′,4′-dichlorophenyl)-1,4,5,6-tetrahydrobenzo[6,7]cyclohepta[1,2-c]pyrazol-3-carboxamide]
CB1 receptors
  Ki: 2.6 ± 0.17 nM
CB2 receptors; [1]
  Ki: 19.6 ± 1.5 nM

## Cc1ccc2c(c1)Cc1c(C(=O)NCC3CCC4CC3C4(C)C)nn(-c3ccc(Cl)cc3Cl)c1-2 (stereo not shown) [Example 3.15, N-myrtanyl-1-(2′,4′-dichlorophenyl)-6-methyl-1,4-dihydroindeno[1,2-c]pyrazole-3-carboxamide]
CB1 receptors
  Ki: 350 ± 76 nM
CB2 receptors; [1]
  Ki: 2.3 ± 0.5 nM

## Cc1ccc2c(c1)oc1c(C(=O)NN3CCCCC3)nn(-c3ccc(Cl)cc3Cl)c12 [Example 3.20, N-piperidinyl-1-(2,4-dichlorophenyl)-6-methyl-1H-benzofuro[3,2-c]pyrazole-3-carboxamide]
CB1 receptors
  Ki: 1790 ± 330 nM
CB2 receptors
  Ki: 12.9 ± 1.1 nM
other
  melting point: 155 to 157 °C

## Cc1ccc2c(c1)oc1c(C(=O)NN3CCCC3)nn(-c3ccc(Cl)cc3Cl)c12 [Example 3.21, N-pyrrolidinyl-1-(2,4-dichlorophenyl)-6-methyl-1H-benzofuro[3,2-c]pyrazole-3-carboxamide]
CB1 receptors
  Ki: 2720 ± 652 nM
CB2 receptors
  Ki: 29.5 ± 8 nM
other
  melting point: 90 to 92 °C

## Cc1ccc2c(c1)oc1c(C(=O)NN3CCOCC3)nn(-c3ccc(Cl)cc3Cl)c12 [Example 3.22, N-morpholin-4-yl-1-(2,4-dichlorophenyl)-6-methyl-1H-benzofuro[3,2-c]pyrazole-3-carboxamide]
CB1 receptors
  Ki: 4060 ± 64 nM
CB2 receptors
  Ki: 37.7 ± 6.3 nM
other
  melting point: 178 to 180 °C

## Cc1ccc2c(c1)oc1c(C(=O)NC3CCCCC3)nn(-c3ccc(Cl)cc3Cl)c12 [Example 3.23, N-cyclohexyl-1-(2,4-dichlorophenyl)-6-methyl-1H-benzofuro[3,2-c]pyrazole-3-carboxamide]
CB1 receptors
  Ki: 1250 ± 129 nM
CB2 receptors
  Ki: 15.6 ± 4 nM
other
  melting point: 140 to 142 °C

## Cc1ccc2c(c1)oc1c(C(=O)N[C@H]3C[C@@H](C)CC[C@@H]3C(C)C)nn(-c3ccc(Cl)cc3Cl)c12 [Example 3.24, N-2-isopropyl-5-methyl-cyclohexyl-1-(2,4-dichlorophenyl)-6-methyl-1H-benzofuro[3,2-c]pyrazole-3-carboxamide]
CB1 receptors
  Ki: 38.2 ± 6 nM
CB2 receptors; [1]
  Ki: 2.3 ± 0.3 nM
other
  melting point: 70 to 72 °C

## Cc1ccc2c(c1)oc1c(C(=O)N[C@@H]3C[C@H]4C[C@@H]([C@@H]3C)C4(C)C)nn(-c3ccc(Cl)cc3Cl)c12 [Example 3.25, N-2,6,6-trimethyl-bicyclo[3.1.1]hept-3-yl-1-(2,4-dichlorophenyl)-6-methyl-1H-benzofuro[3,2-c]pyrazole-3-carboxamide]
CB1 receptors
  Ki: 2400 ± 629 nM
CB2 receptors
  Ki: 3.7 ± 0.3 nM
other
  melting point: 85 to 87 °C

## Cc1ccc2c(c1)oc1c(C(=O)NC3C4(C)CCC(C4)C3(C)C)nn(-c3ccc(Cl)cc3Cl)c12 (stereo not shown) [Example 3.26, N-1,3,3-trimethyl-bicyclo[2.2.1]hept-2-yl-1-(2,4-dichlorophenyl)-6-methyl-1H-benzofuro[3,2-c]pyrazole-3-carboxamide]
CB1 receptors
  Ki: 257 ± 7 nM
CB2 receptors
  Ki: 2.5 ± 0.3 nM
other
  melting point: 84 to 86 °C

## Cc1ccc2c(c1)oc1c(C(=O)NC3CC4CCC3(C)C4(C)C)nn(-c3ccc(Cl)cc3Cl)c12 (stereo not shown) [Example 3.27, N-1,7,7-trimethyl-bicyclo[2.2.1]hept-2-yl-1-(2,4-dichlorophenyl)-6-methyl-1H-benzofuro[3,2-c]pyrazole-3-carboxamide]
CB1 receptors
  Ki: 469 ± 64 nM
CB2 receptors
  Ki: 3.5 ± 0.6 nM
other
  melting point: 78 to 80 °C

## Cc1ccc2c(c1)oc1c(C(=O)NC34CC5CC(CC(C5)C3)C4)nn(-c3ccc(Cl)cc3Cl)c12 [Example 3.28, N-adamantan-1yl-1-(2,4-dichlorophenyl)-6-methyl-1H-benzofuro[3,2-c]pyrazole-3-carboxamide]
CB1 receptors
  Ki: 363 ± 92 nM
CB2 receptors
  Ki: 28 ± 6.6 nM
other
  melting point: 210 to 212 °C

## Cc1ccc2c(c1)oc1c(C(=O)NC3C4CC5CC(C4)CC3C5)nn(-c3ccc(Cl)cc3Cl)c12 (stereo not shown) [Example 3.29, N-adamantan-2-yl-1-(2,4-dichlorophenyl)-6-methyl-1H-benzofuro[3,2-c]pyrazole-3-carboxamide]
CB1 receptors
  Ki: 537 ± 132 nM
CB2 receptors
  Ki: 17.5 ± 0.9 nM
other
  melting point: 209 to 211 °C
